Experimental data from patent US20080199423A1, “Methods of Using Apo2l Receptor Agonists and Ink Cell Activators” (GENENTECH, INC., priority 2004, published 2008).
“Also recorded” adds a separate entry of the source. The star is where a group is joined. Cbz = O=C(OCc1ccccc1)*; CH2F = FC*

How the values were obtained:
[1] = tested on: 4T1 cells; assay: Lysis of 4T1 cells by activated NK cells treated with inhibitors; format: cell-based, mouse; settings: E/T ratio 25 to 1
Description: (§1) The cytolytic activity of resting and activated NK cells was evaluated against 4T1 target cells. The activated NK cells were treated with inhibitors of Perforin maturation (concanamycin A), GraB (Z-AAD-FMK), PI3K (wortmannin), MEK1 kinase (PD98059), S6 kinase (rapamycin) and JNK (SP) to assess the role of cytotoxic granules. The E/T ratio was 25 to 1, and results shown are from one representative donor (out of three donors). […] 4T1 target cells were treated with Apo2L/TRAIL protein (100 ng/ml) or with activated NK cells (“Act NK”) for 30 minutes, 1 hour or 4 hours. The E/T ratio was 10:1. Extracts of the 4T1 cells were analysed by SDS-PAGE and immunoblot analysis for pro-caspase-3, cleaved caspase-3 and cleaved PARP.
For the cytotoxicity assays, target cells were labeled with 100 mCi ^51Cr for 1 hour at 37° C. and then washed 3 times before use. […] The cytotoxicity assays were performed in round bottom 96 well plates and the percent specific lysis was calculated as 100× (experimental cpm-spontaneous cpm)/(total cpm-spontaneous cpm). The role of Apo2L/TRAIL expressed by NK cells in the lysis of target cells was evaluated using anti-Apo2L/TRAIL mAbs (5C2 and 1D1, Genentech, Inc.). […]

[2] = tested on: cell surface Apo2L/TRAIL on NK cells; assay: Flow cytometry of cell surface Apo2L/TRAIL on purified NK cells; format: cell-based, human; settings: 5C2-Alexa 488 staining
Description: Cell surface Apo2L/TRAIL on purified NK cells treated with poly(I:C), R-848 or hIL-2 (30 ng/ml, BD Biosciences) was also analyzed by cytometry. Isotype control (IgG2a, Sigma) and anti-Apo2L/TRAIL antibody (5C2) were labeled with Alexa 488 (Molecular Probes). 5×10^5 cells were incubated with 2 μg of human IgG to block FcRs and 1 μg of the directly labeled mAbs at 4° C. for 45 minutes, followed by 2 washes. Stained cells were analyzed using a FACScan cytometer (Becton Dickenson) and Cellquest software.

[3] = tested on: Apo2L/TRAIL mRNA in NK cells; assay: RT-QPCR of Apo2L/TRAIL message in treated NK cells; format: cell-based, human
Description: In another experiment, the purified NK cells were treated for 18 hours in RPMI 1640 supplemented with heat inactivated 10% FCS, penicillin, streptomycin, 10 mM sodium pyruvate, 2 mM L-glutamine and 10 mM HEPES with poly(I:C) (50 μg/ml), R-848 (5 μg/ml) or hIFN-alpha (1000 U/ml, Sigma) in the presence or absence of 10 μg/ml cycloheximide and Apo2L/TRAIL was measured in the extracted RNA. RT-PCR was performed and the amount of cDNA was quantitated by RT-QPCR analysis, normalized to RPL19, and fold induction over control is shown in FIG. 2A. Primers were designed as per instructions (Primer Express) and sequences are: hRPL19-probe: […] (SEQ ID NO:7); hRPL19-For: […] (SEQ ID NO:8); hRPL19-Rev: […] (SEQ ID NO:9); hApo2L-probe: […] (SEQ ID NO:10); hApo2L-For: […] (SEQ ID NO:11); hApo2L-Rev: […] (SEQ ID NO:12). cDNA was analyzed for expression of RPL19 and Apo2L/TRAIL by RT-QPCR (Applied Biosystems) as described in Zarember et al., J. Immunol., 168(2):554-61 (2002). Fold increase values are expressed as arbitrary units, relative to the calibrator gene RPL19.

[4] = tested on: B16BL10 melanoma cells; assay: 51Cr release cytotoxicity assay on B16 melanoma target cells; format: cell-based, mouse
Description: (§2) Purified NK cells were treated with poly(I:C) or R-848 and incubated with B16BL10 melanoma cells (ATCC) at the indicated ratios. Purified NK cells stimulated with R-848 were incubated with HCT116 target cells (ATCC) at the indicated ratios. The role of Apo2L/TRAIL in lysis assays in panels B and C was determined by preincubation with neutralizing (5C2) and non-neutralizing (1D1) anti-Apo2L/TRAIL mAbs. The data has been confirmed with NK cells from at least 3 donors and less that 5% SD was observed.
(§3) For the cytotoxicity assays, target cells were labeled with 100 mCi ^51Cr for 1 hour at 37° C. and then washed 3 times before use. 10^4 target cells were added to varying numbers of effector cells at the indicated ratios and incubated in duplicate wells for 4 hours at 37° C., 5% CO2, and supernatants were used to determine ^51Cr released using a Gamma counter. The cytotoxicity assays were performed in round bottom 96 well plates and the percent specific lysis was calculated as 100× (experimental cpm-spontaneous cpm)/(total cpm-spontaneous cpm). The role of Apo2L/TRAIL expressed by NK cells in the lysis of target cells was evaluated using anti-Apo2L/TRAIL mAbs (5C2 and 1D1, Genentech, Inc.). Isotype control antibodies were obtained from BD Biosciences.

[5] = tested on: HCT116 cells; assay: 51Cr release cytotoxicity assay on HCT116 target cells; format: cell-based
Description: as §2, §3

[6] = tested on: 4T1 cells; assay: 51Cr release cytotoxicity assay, purified human NK cells on 4T1 target cells; format: cell-based, mouse; settings: for Lysis of 4T1 cells by NK cells treated with TLR activating agent: NK cells treated for 18 hours with agent, 4 hour incubation, E:T 1:1 to 50:1
Description: 4T1 cells (a metastatic mammary carcinoma cell line derived from BALE/C mice, obtained from Fred Miller, Karmanos Cancer Institute) were assayed in an in vitro cytotoxicity assay to examine tumoricical effects of various Toll receptor (“TLR”) activators and NK cells. The 4T1 target cells were cultured in IDMEM medium supplemented with 10% FCS, glutamine and penicillin/streptomycin, labeled with 100 mCi ^51Cr for 1 hour at 37° C. and then washed three times with culture medium.
To prepare purified effector NK cells for the assay, PBMCs from healthy human donors were isolated by standard density-gradient centrifugation over Ficoll-Paque Plus (Pharmacia). CD3 positive cells were first depleted using anti-CD3 microbeads (obtained from Miltenyi), and then the NK cells were purified using anti-CD56 microbeads (Miltenyi). The purity of the NK cell preparation was 95% or higher as determined by staining with mouse anti-human CD56 PE and mouse anti-human CD14 PE conjugates (BD Biosciences). The isolated cells were cultured in RPMI 1640 supplemented with heat inactivated 10% FCS, penicillin, streptomycin, 10 mM sodium pyruvate, 2 mM L-glutamine and 10 mM HEPES.
10^4 of the labeled 4T1 cells were added to varying numbers of purified NK cells (either untreated control NK cells or NK cells treated with specific agent) at ratios of 1:1, 3:1, 6:1, 12:1, 25:1, and 50:1, respectively. NK cells were treated for 18 hours with one of the following TLR activating agents: sBLP (1 μg/ml, Bachem); poly(I:C) (50 μg/ml, Pharmacia); E. coli 055:B5 LPS (phenol extracted, 1 μg/ml, Sigma); Flagellin (1 μg/ml, A. Gewirtz, Emory Univerity); R-848 (5 μg/ml, Invivogen); CpG oligonucleotides (2006 and 2216, 5 μM, Invivogen). The cytotoxicity assays were performed in round bottom 96 well plates, and the samples were incubated in duplicate wells for 4 hours at 37° C., 5% CO2. RPMI 1640 supplemented with heat inactivated 10% FCS, penicillin, streptomycin, 10 mM sodium pyruvate, 2 mM L-glutamine and 10 mM HEPES was used during incubation.
After the 4 hour incubation, supernatants were aspirated from the wells and examined for ^51Cr release using a Gamma counter. The percent specific lysis was calculated as 100× (experimental cpm-spontaneous cpm)/(total cpm-spontaneous cpm). The data are representative of at least three experiments and <5% SD was observed.
A cytotoxicity assay was performed as described in Example 1, except for the following modifications. Purified NK cells were treated with poly(I:C) or R-848 overnight and incubated with 4T1 cells. The role of TNF-alpha, FasL, and Apo2L/TRAIL was evaluated by preincubation of the NK cells with neutralizing antibodies to the respective ligands. The following neutralizing antibodies were added at final concentration of 2 μg/ml: anti-Fas-L (mIgG2b, R&D Systems), anti-TNF-alpha (mIgG1, Genentech), and anti-Apo2L/TRAIL (5C2, mIgG2a, ATCC HB-12258 and 1D1, mIgG2b; ATCC HB-12257). Isotype control antibodies were obtained from BD Biosciences.
as §3

[7] = tested on: C57MG; assay: 51Cr release cytotoxicity assay on C57MG cells; format: cell-based, mouse
[8] = tested on: caspase-3 and PARP cleavage in 4T1 cells; assay: Immunoblot for caspase-3 and PARP cleavage in 4T1 cells; format: cell-based, mouse
Description: as §1
4T1 cells were treated with Apo2L/TRAIL, resting NK cells (“NK”) or activated NK cells (“Act NK”) separately or in combination. The lysates were analyzed for cleavage of PARP, an indicator of caspase-3 activation. NK cells from multiple donors were utilized and results from one representative donor are shown. […]
Total cell extracts were prepared from 4T1 cells using lysis buffer (0.1 M Tris pH 8.0, 500 mM NaCl, 2 mM EDTA, […], 10% glycerol, supplemented with Complete Protease Inhibitor Cocktail, Roche), and the lysates were clarified by centrifugation at 16,000 rpm for 10 minutes at 4° C. […] Immune complexes were detected using enhanced chemiluminesence (Amersham).

[9] = tested on: 4T1 cells; assay: Clonogenic potential of 4T1 cells; format: cell-based, mouse
Description: Since both cell surface Apo2L/TRAIL and perforin granules are essential for lysis of 4T1 cells, assays were conducted to examine if resting NK cells could be “armed” by the addition of soluble Apo-2L/TRAIL protein. There is precedence for membrane bound and soluble forms of TNF family members to display differential behavior upon application to the target cell. With the aim of corroborating the ^51Cr release assays, the clonogenic potential of 4T1 cells was evaluated by treatment with soluble Apo2L/TRAIL and resting NK cells.

[10] = tested on: SKMES-1 cells; assay: 51Cr release by SKMES-1 cells incubated with soluble Apo2L/TRAIL; format: cell-based; settings: range of concentrations, 4 hours
Description: The role of Apo2L/TRAIL was evaluated by preincubation of NK cells with either a neutralizing (5C2) or non-neutralizing (1D1) mAb. The % lysis was plotted, and the results are representative of 3 experiments (less than 5% SD was observed). […] The supernatants were then assessed for Cr release. Similar cytolysis results were obtained in at least 3 experiments.
as §3

For `C/C=C/[C@H]1O[C@@](O)([C@@H](C)[C@H](O)[C@H](C)[C@H]2OC(=O)/C(OC)=C/C(C)=C/[C@@H](C)[C@@H](O)[C@@H](CC)[C@@H](O)[C@H](C)C/C(C)=C/C=C/[C@@H]2OC)C[C@@H](O[C@H]2C[C@@H](O)[C@H](OC(N)=O)[C@@H](C)O2)[C@@H]1C` [Concanamycin A], the “Effect of inhibitor treatment of activated NK cells on lysis of 4T1 cells” value [1] was “blocked the cytotoxic activity”.
In the case of `CCOCc1nc2c(N)nc3ccccc3c2n1CC(C)(C)O` [R-848], the “Cell surface expression of Apo2L/TRAIL on NK cells” value [2] is reported as “detectable cell surface expression”, the “Increase of Apo2L/TRAIL mRNA over control” value ([3]; NK cells treated 18 hours, normalized to RPL19) is reported as 25 fold and the “Killing of B16 melanoma cells by stimulated NK cells” value ([4]; NK cells stimulated with agent) is reported as “efficiently killed”. The “Cytotoxicity of stimulated NK cells towards HCT116 cells” value ([5]; NK cells stimulated with agent) was “increased cytoxicity” and the “Lysis of 4T1 cells by NK cells treated with TLR activating agent” value [6] was “efficiently killed”.
In the case of `C[C@@H]1C[C@@H]([C@H](O)CC2CC(=O)NC(=O)C2)C(=O)[C@@H](C)C1` [cycloheximide], the “Effect of protein synthesis inhibitor on induction of Apo2L/TRAIL message in stimulated NK cells” value ([3]; 10 μg/ml cycloheximide, poly(I:C), R-848 or IFN-alpha stimulated) is reported as “not blocked”.
For “Apo2L/TRAIL: recombinant Apo2L/TRAIL (amino acids 114-281), prepared as in Ashkenazi et al. 1999”, the “Lysis of C57MG cells, Apo2L/TRAIL added to activated NK cells” value ([7]; plus activated NK cells) was “no significant increase”, the “Lysis of C57MG cells, Apo2L/TRAIL added to resting NK cells” value ([7]; plus resting NK cells) was “increased the lysis observed” and the “Cleavage of pro-caspase-3 and PARP in 4T1 cells, Apo2L/TRAIL alone” value ([8]; 100 ng/ml, 30 minutes, 1 hour or 4 hours) was “did not result in cleavage”. The “PARP cleavage in 4T1 cells, resting NK cells along with soluble Apo2L/TRAIL” value ([8]; combined treatment) was “production of cleaved PARP”, the “Lysis of B16BL10 cells, Apo2L/TRAIL added to activated NK cells” value ([4]; plus activated NK cells) was “no significant increase” and the “Lysis of B16BL10 cells, Apo2L/TRAIL added to resting NK cells” value ([4]; plus resting NK cells) was “increased the lysis observed”. The “Apoptotic effect of Apo2L/TRAIL protein alone on B16 cells” value ([4]; range of concentrations, no NK cells) was “certain resistance”, the “Cytotoxic effect on HCT116 cells, Apo2L/TRAIL with limiting ratios of resting NK cells” value ([5]; 5 ng/ml Apo2L/TRAIL plus resting NK cells) was “enhanced cytotoxic effect” and the “Lysis of HCT116 cells by Apo2L/TRAIL alone” value ([5]; 5 ng/ml Apo2L/TRAIL, no NK cells) was “no lysis”. The “51Cr release by HCT-116 cells, Apo2L/TRAIL alone” value ([5]; range of concentrations, 4 hours) was “effectively mediated release”, the “Clones of 4T1 cells, simultaneous soluble Apo2L/TRAIL and resting NK cells” value ([9]; NK cells at ratio 25 to 1, after 5 days) was “dramatic reduction in clones” and the “Clonogenic capacity of 4T1 cells, soluble Apo2L/TRAIL alone” value ([9]; individual treatment) was “not affected in terms of clonogenic capacity”. For the same molecule, the “Lysis of 4T1 cells, Apo2L/TRAIL with resting NK cells” value ([6]; increasing concentrations of Apo2L/TRAIL plus resting NK cells) was “dose dependent lysis”, the “Lysis of 4T1 cells, Apo2L/TRAIL added to activated NK cells” value ([6]; plus activated NK cells) was “Some increase” and the “Lysis of 4T1 cells by Apo2L/TRAIL protein alone” value ([6]; range of concentrations, up to 2 μg/ml, no NK cells) was “resistant to lysis; also recorded: certain resistance”. The “51Cr release by SKMES-1 cells, Apo2L/TRAIL alone” value [10] was “effectively mediated release”.
Cbz-Ala-Ala-Asp-CH2F [GraB inhibitor] was tested, and the “Effect of inhibitor treatment of activated NK cells on lysis of 4T1 cells” value [1] was “reduction in lysis”.
In the case of Flagellin, the “Lysis of 4T1 cells by NK cells treated with TLR activating agent” value [6] is reported as “neither BLP, LPS, Flagellin, nor the CpG oligonucleotides induced cytotoxic activity”.
